Legend:
[1] = system: Plasmodium falciparum (strain NF54); experiment: Antimalarial activity test: growth of Plasmodium falciparum in infected human erythrocytes, 3H-hypoxanthine incorporation; type: cell-based; conditions: strain NF54 sensitive to chloroquine, 72 h total incubation
Method in brief: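 Chloroquine-sensitive NF54 parasites in human erythrocytes (1.25% hematocrit, 0.15% parasitemia) were grown in hypoxanthine-free RPMI 1640 with HEPES and Albumax II, with compound in twofold serial dilution, at 37 °C under 93% N2/4% CO2/3% O2. After 48 h, 3H-hypoxanthine (0.5 μCi) was added for 24 h. Scintillation counts versus drug-free control gave IC50.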

[2] = biological target: human PI3Kα (Homo sapiens (Human), UniProt P42336); experiment: Human PI3Kα activity test (luciferin/luciferase ATP consumption, KinaseGlo); type: biochemical; conditions: PI3Kα (p110α/p85α), 50 μM PIP2, 2 μM ATP, 90 minutes; read-out: IC50 Human PI3Kα
Procedure: The test uses a luciferin/luciferase system to measure the concentration of ATP and its consumption during the enzymatic reaction.
After 90 minutes, the reaction is quenched by adding 20 μl/well of KinaseGlo reagent (Promega V6713). After 10 minutes in the dark, the luminescence is read using a PHERAStar microplate reader (reading at 0.8 sec/well).

[3] = Plasmodium falciparum, Erythrocyte

Chain of human PI3Kα (P42336 whole entry): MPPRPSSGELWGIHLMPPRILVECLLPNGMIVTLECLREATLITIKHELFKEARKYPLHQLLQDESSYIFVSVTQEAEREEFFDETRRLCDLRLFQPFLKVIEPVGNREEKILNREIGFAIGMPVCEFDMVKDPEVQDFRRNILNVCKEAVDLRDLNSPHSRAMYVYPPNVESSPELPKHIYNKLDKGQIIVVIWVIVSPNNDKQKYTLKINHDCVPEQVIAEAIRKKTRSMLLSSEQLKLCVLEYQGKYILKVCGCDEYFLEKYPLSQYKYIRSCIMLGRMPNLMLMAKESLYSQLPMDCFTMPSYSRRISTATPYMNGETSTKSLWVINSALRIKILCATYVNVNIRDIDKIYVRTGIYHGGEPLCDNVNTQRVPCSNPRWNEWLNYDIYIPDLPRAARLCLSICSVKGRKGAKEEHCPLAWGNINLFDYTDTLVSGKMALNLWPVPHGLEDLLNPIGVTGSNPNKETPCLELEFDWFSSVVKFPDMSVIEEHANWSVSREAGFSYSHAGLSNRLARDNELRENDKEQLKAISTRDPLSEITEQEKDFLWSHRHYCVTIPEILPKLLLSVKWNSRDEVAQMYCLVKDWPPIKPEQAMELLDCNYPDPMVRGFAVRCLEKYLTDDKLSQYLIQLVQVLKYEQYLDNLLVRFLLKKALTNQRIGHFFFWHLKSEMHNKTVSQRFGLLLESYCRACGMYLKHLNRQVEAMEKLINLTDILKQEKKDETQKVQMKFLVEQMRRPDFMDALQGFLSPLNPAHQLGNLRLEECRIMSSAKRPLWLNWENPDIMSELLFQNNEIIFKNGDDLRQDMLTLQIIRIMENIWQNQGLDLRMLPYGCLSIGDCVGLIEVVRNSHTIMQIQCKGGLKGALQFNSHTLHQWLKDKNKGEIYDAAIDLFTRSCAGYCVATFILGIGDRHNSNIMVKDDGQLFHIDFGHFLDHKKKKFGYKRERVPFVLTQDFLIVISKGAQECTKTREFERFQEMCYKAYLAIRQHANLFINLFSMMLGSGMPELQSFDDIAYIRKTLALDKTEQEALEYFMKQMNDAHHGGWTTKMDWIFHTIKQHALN
Chain of human PI3Kα (P27986 whole entry partner): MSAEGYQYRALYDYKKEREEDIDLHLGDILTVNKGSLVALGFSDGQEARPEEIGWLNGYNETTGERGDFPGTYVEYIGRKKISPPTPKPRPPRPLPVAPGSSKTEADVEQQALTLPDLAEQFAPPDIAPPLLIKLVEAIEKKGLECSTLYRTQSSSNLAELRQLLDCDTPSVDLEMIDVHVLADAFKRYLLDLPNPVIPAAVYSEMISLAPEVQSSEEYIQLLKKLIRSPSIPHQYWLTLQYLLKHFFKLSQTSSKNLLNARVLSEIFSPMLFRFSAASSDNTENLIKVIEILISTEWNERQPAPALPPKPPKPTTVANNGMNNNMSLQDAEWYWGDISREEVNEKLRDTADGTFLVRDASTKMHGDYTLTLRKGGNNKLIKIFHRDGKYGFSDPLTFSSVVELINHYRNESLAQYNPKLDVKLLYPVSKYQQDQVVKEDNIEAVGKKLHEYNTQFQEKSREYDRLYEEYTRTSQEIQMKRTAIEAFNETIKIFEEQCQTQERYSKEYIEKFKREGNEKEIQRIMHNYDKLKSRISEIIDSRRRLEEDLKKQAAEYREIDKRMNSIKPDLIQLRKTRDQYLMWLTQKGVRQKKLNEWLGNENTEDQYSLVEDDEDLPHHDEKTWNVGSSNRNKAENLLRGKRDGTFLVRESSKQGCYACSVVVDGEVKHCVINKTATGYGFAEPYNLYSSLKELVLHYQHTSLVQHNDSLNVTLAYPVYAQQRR

SMILES: O=C(COc1ccc(CCN2c3nc(N4C[C@@H]5C[C@H]4CO5)cc(=O)n3CC[C@H]2C(F)(F)F)cc1)N1CCOCC1 [Compound 115, (S)-9-{2-[4-(2-Morpholin-4-yl-2-oxoethoxy)phenyl]ethyl}-2-(1S,4S)-2-oxa-5-azabicyclo[2.2.1]hept-5-yl-8-trifluoromethyl-6,7,8,9-tetrahydropyrimido[1,2-a]pyrimidin-4-one]
- IC50 [1, 3]: 3 nM
- IC50 [2]: 590 nM

SMILES: Cn1cc(CN2c3nc(N4C[C@@H]5C[C@H]4CO5)cc(=O)n3CC[C@H]2C(F)(F)F)c(C(F)(F)F)n1 [Compound 116, (8S)-9-(1-Methyl-3-trifluoromethyl-1H-pyrazol-4-ylmethyl)-2-(1S,4S)-2-oxa-5-azabicyclo[2.2.1]hept-5-yl-8-trifluoromethyl-6,7,8,9-tetrahydropyrimido[1,2-a]pyrimidin-4-one]
- IC50 [1, 3]: 117 nM
- IC50 [2]: > 10000 nM

SMILES: CN(C)CCOc1ccc(CCN2c3nc(N4C[C@@H]5C[C@H]4CO5)cc(=O)n3CC[C@H]2C(F)(F)F)cc1 [Compound 117, (8S)-9-{2-[4-(2-Dimethylaminoethoxyl)phenyl]ethyl}-2-(1S,4S)-2-oxa-5-azabicyclo[2.2.1]hept-5-yl-8-trifluoromethyl-6,7,8,9-tetrahydropyrimido[1,2-a]pyrimidin-4-one]
- IC50 [1, 3]: 6 nM
- IC50 [2]: 380 nM

SMILES: O=CN1CCC(C(=O)CN2c3nc(N4C[C@@H]5C[C@H]4CO5)cc(=O)n3CC[C@H]2C(F)(F)F)CC1 [Compound 118, 4-[2-((S)-8-(1S,4S)-2-Oxa-5-azabicyclo[2.2.1]hept-5-yl-6-oxo-2-trifluoromethyl-3,4-dihydro-2H,6H-pyrimido[1,2-a]pyrimidin-1-yl)acetyl]piperidine-1-carbaldehyde]
- IC50 [1]: 15 nM
- IC50 [2]: > 10000 nM

SMILES: CC(=O)N1CCC(C(=O)CN2c3nc(N4C[C@@H]5C[C@H]4CO5)cc(=O)n3CC[C@H]2C(F)(F)F)CC1 [Compound 119, (8S)-9-[2-(1-Acetylpiperid-4-yl)-2-oxoethyl]-2-(1S,4S)-2-oxa-5-azabicyclo[2.2.1]hept-5-yl-8-trifluoromethyl-6,7,8,9-tetrahydropyrimido[1,2-a]pyrimidin-4-one]
- IC50 [1, 3]: 30 nM
- IC50 [2]: > 10000 nM
